The values below come from patent publication US6599917B1, “Quinuclidine compounds and drugs containing the same as the active ingredient” (priority 1999, dated 2003).

As usually defined, the inhibition is the percentage by which the read-out fell short of the control. What is called IC50 is the concentration that gives 50% inhibition. Low readings indicate greater potency, high ones weaker potency. As a reminder, the inhibition in vivo is the relative decrease from the control value, in per cent. Low values mean little suppression, high ones strong suppression.

Test [1] has as its system triglyceride biosynthesis. Nature of the test: Measurement of triglyceride biosynthesis inhibitive activity in a rat liver cell. The class given is cell-based. On the procedure: (§1) Measurement of Cholesterol and Triglyceride Biosynthesis Inhibitive Activities in a Rat Liver Cell
(§2) A liver cell was isolated from a male SD rat according to a usual method (collagenase perfusion method) and subjected to an experiment.
(§3) The isolated liver cells were planted in an amount of 500 μ1 every well on a Type collagen coated 24 well plate (cell density: 4×10^5 cell/ml). As the cell culture solution, a Williams'E medium (adjusted to pH 7.4) containing 10% FCS, 1 μM insulin, 1 μM dexamethasone, 100 units/ml penicillin and 10 μg/ml streptomycin was used. After the liver cells were incubated in a CO2 incubator for 2 hours, unstuck cells were removed and the liver cells were further incubated overnight.
(§4) After the culture medium was exchanged, the specimen diluted in a 10% DMSO-90% cell culture solution was added to each well in an amount of 5 μ1. DMSO (final concentration: 0.1%) was added to a control group. A [1-^14C]Acetic acid, sodium salt (5 μCi/well) was added to the media 10 minutes and 4 hours after the specimen was added for the measurement of cholesterol synthesis inhibitive action and for the measurement of triglyceride synthesis inhibitive action respectively, followed by culturing for further 2 hours.
(§5) After the cultivation was finished, the supernatant was removed and the cells were washed using PBS(−)(Phosphate buffered saline (Ca^2+, Mg^2+free) twice. Hexane/isopropyl alcohol (3:2, v/v) was added to the cells and the cells were then allowed to stand for 10 minutes to extract intracellular lipid. The extract was transferred to a glass tube and exsiccated under a nitrogen gas stream. Further, the exsiccated extract was washed with 25 mL of petroleum ether and then dissolved in petroleum ether containing the following components: 0.01% squalene, 0.3% free cholesterol, 0.3% cholesterol acetate, 0.1% triolein, 0.01% farnesol and 0.3% lanosterol.
(§6) The resulting solution was spotted on a TLC plate to perform an isolating operation. The spotted solution was developed for 10 minutes by using toluene/isopropyl ether (1:1, v/v) as the solvents and for further 15 minutes by using heptane in place of the above solvent after it was dried using air.
(§7) After the development was finished, the TLC plate was subjected to iodine color development. After each position of free cholesterol and triolein which were used as standards was confirmed, the image of the TLC plate was transferred to a BAS 2000 (Fuji Film) imaging plate by exposure performed for 16 hours. This transferred image was analyzed using a BAS 2000 IP Reader and an Imaging analyzer II to measure radiative activities contained in the free cholesterol and triglyceride fractions.
(§8) The cholesterol biosynthesis inhibitive activity was expressed by a concentration (IC50) at which 50% of the radiative activity of the control group was inhibited and the triceride biosynthesis inhibitive activity was expressed by an inhibition rate (%) to the control group.

For test [2], the target named is T1, squalene synthesizing enzyme (Rattus norvegicus, UniProt Q02769).
T1 construct: The liver was excised from a male Spraugue-Dawly rat; from tissue; host or cells: liver microsome fraction of male Sprague-Dawley rat (8 to 9 weeks)
T1 sequence (Q02769 1-416): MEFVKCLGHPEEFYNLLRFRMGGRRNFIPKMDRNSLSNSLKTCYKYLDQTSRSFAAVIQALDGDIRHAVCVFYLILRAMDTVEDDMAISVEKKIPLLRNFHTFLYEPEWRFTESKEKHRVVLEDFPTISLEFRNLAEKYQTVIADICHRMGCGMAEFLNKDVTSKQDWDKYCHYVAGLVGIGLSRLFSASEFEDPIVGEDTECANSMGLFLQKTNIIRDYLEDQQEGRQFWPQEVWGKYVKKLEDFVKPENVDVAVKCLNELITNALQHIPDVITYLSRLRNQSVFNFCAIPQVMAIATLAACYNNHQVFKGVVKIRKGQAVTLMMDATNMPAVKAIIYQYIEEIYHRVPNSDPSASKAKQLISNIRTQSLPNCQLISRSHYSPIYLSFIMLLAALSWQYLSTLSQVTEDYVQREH
The experiment in a line: Measurement of squalene synthesizing enzyme inhibitive activity by using a rat liver microsome. The class given is biochemical. As to conditions: [3H]-farnesylpyrophosphoric acid. On the procedure:
Measurement of Squalene Synthesizing Enzyme Inhibitive Activity by Using a Rat Liver Microsome
(I) The reaction was run on a scale of 500 μ1. 200 µl of a solution containing 125 mM tris-hydrochloric acid (pH: 7.3), 2.5 mM magnesium chloride, 5 mM potassium fluoride and 10 mM reduction type nicotinamidoadenine dinucleotide phosphoric acid, 100 µl of the specimen solution with a 5-fold concentration, 100 µl of distilled water and 50 µl of 0.4 to 1 mg/ml rat liver microsome prepared by the following method were mixed.
(II) The above mixture was pre-incubated at 37° C. for 10 minutes and thereafter, 50 µl of 100 μM [^3H]-farnesylpyrophosphoric acid (30 mCi/mmol, NEN) was added to the mixture to start a reaction. The reaction was continued at 37° C. for 10 minutes. 1 ml of ethanol was added to the resulting mixture to terminate the reaction and then 1 ml of distilled water and 3 ml of petroleum ether were added to the reaction solution, which was then shaken for 30 minutes. The water phase was separated from the oil phase, the water phase was frozen at −70° C. in dry ice/methanol and the radiative activity of the organic phase was measured using a liquid scintillator. Or the organic phase was evaporated to dryness using nitrogen gas and the residue was dissolved as a marker in 25 µl of chloroform containing squalene, farnesol and cholesterol. This sample was spotted on a TCL plate (Merck) and developed using heptane for 15 to 20 minutes. A band of squalene was cut from the plate to measure the radiative activity by using a liquid scintillation counter. The data was expressed by a concentration (IC50) at which 50% of the radiative activity of a control group was inhibited.
Method of the Preparation of a Rat Liver Microsome
The following operations were all carried out on ice and the centrifugation was performed at 4° C. The liver was excised from a male Spraugue-Dawly rat (hereinafter referred to as SD rat) (8 to 9 weeks age) and perfused with 1.15% potassium chloride to remove the blood. Then, the liver was minced using a forceps and the minced liver was homogenized using a Teflon homogenizer. The resulting sample was centrifuged at 16000×g twice for 15 minutes. The supernatant was further centrifuged at 105000×g for 60 minutes. The obtained deposit was determined as a microsome fraction, which was then suspended in a 25 mM tris-hydrochloric acid solution. The concentration of protein was measured quantitatively by a Bradford method and the concentration of protein was adjusted to 20 mg/ml by using the same solution. The resulting solution was stored at […].
In general terms: Liver microsomes are vesicles of endoplasmic reticulum, rich in cytochrome P450 enzymes.

For test [3], the system named is cholesterol biosynthesis. Nature of the test: Measurement of cholesterol biosynthesis inhibitive activity in a rat liver cell. The class given is cell-based. Particulars: isolated rat liver cells, [1-14C]acetic acid added 10 minutes after the specimen. The method, then:
as §1, §2, §3, §4, §5, §6, §7, §8

Test [4] has as its system cholesterol biosynthesis. Nature of the test: Measurement of cholesterol biosynthesis inhibitive activity in a rat. Format: in vivo. Particulars: 2 h; male SD rat, oral, dose 1 mg/kg, inhibition rate to control group. On the procedure: Measurement of Cholesterol Biosynthesis Inhibitive Activity in a Rat
(I) An SPF grade male SD rat (4 weeks age, SLC) was bred for more than one week in a day-night-reversal room and subjected to an experiment made in the daytime. The compound dissolved in a 2% Tween 80 solution was administered (5 ml/kg) to the rat using an oral sonde. After one hour, a [1-^14C]Acetic acid, sodium salt (1.67-2.22 GBq/mmol, 37 MBq/ml, NEN) prepared by diluting to 1.85 MBq/ml by using physiological saline was intraabdominally administered (300 μ1/animal). After one hour, the rat was anesthetized by diethyl ether to carry out exsanguination from the aorta abdominalis. The collected blood was centrifuged at 3000 rpm for 10 minutes to prepare blood plasma.
(II) 1 ml of 4N KOH and 1 ml of ethanol were added to 2 ml of the blood plasma, which was then incubated at 65° C. for one hour and there after, 3 ml of petroleum ether was added. The plasma was shaken for 30 minutes. After the water phase was separated from the organic phase by centrifugation, it was frozen at −80° C. and the radiative activity of the organic phase was measured using a liquid scintillation counter. Or the organic phase was evaporated to dryness using nitrogen gas and the residue was dissolved as a marker in 25 µl of chloroform containing squalene, farnesol and cholesterol. This sample was applied to a TCL plate (Merck) and developed using toluene and isopropyl ether (1:1) for 15 to 20 minutes. A band of cholesterol was cut from the plate to measure the radiative activity by using a liquid scintillation counter. The cholesterol biosynthesis inhibition activity was expressed by an inhibition rate (%) to a control group.

With `O[C@]1(C#Cc2ccc(OCC3OCCO3)nc2Cc2ccccc2)CN2CCC1CC2` [Example 153, (3R)-3-[2-Benzyl-6-(1,3-dioxolan-2-yl)methyloxy-3-pyridyl]ethynyl-3-quinuclidinol], in test [1] (Rattus norvegicus, 6 h, read-out: Triglyceride biosynthesis inhibitive activity inhibition in 1 μM of the specimen), the inhibition at 1 µM was determined as 85%. Moreover, the IC50 in test [2] came to 0.011 µM; with cholesterol biosynthesis [3] (10 min), 0.055 µM. In addition, the inhibition in vivo at 1 mg/kg with cholesterol biosynthesis [4] worked out at 82%.
“(3R)-3-[Benzyl-6-(3,3-ethylenedioxypyrrolidine-1-yl]-3-pyridyl]ethynyl-3-quinuclidinol [Example 118]”: the “Triglyceride biosynthesis inhibitive activity inhibition in 1 μM of the specimen” value in test [1] (isolated rat liver cells, 1 μM of the specimen, [1-14C]acetic acid added 4 hours after the specimen, inhibition rate to control group) is recorded as 85%. Further, the results for the IC50 (in test [2]; in the test on cholesterol biosynthesis [3]) were 0.0025 µM and 0.075 µM, respectively.
